Test results published in patent US11524938B2, “Aromatic sulfonamide derivatives” (Bayer Pharma Aktiengesellschaft, priority 2016, dated 2022).
Where “and” joins values, the source holds several entries; their conditions need not be identical. Identical values can stand only once.

Biological target: T1, human P2X4 (Homo sapiens, UniProt Q99571)
T1 sequence (Q99571 1-388): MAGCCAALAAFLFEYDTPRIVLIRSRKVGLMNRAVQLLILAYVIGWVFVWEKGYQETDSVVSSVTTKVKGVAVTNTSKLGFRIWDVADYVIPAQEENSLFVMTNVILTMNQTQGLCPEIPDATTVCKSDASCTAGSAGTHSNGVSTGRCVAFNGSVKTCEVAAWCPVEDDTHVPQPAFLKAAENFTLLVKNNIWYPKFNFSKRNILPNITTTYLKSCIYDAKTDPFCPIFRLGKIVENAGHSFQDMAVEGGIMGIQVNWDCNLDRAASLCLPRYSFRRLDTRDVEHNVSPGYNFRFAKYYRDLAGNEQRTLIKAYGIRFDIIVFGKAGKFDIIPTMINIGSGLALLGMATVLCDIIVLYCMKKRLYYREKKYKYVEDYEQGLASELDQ
Test: Human P2X4 HEK Cell FLIPR Assay
Assay type: cell-based
Conditions: agonist Bz-ATP at EC80; for Emax: HEK293, HEK293 cells, read-out: Human P2X4 HEK Cells (FLIPR Assay) avg Efficacy [%]; for IC50: individual values listed where some fall outside detection range
In short: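 Calcium flux read by FLIPR for 120 sec after Bz-ATP challenge at EC80 (established each assay day), following 30 min room-temperature compound preincubation in dye-loaded stable human P2X4 HEK293 cells. Peak RFU over basal normalized to agonist control; IC50, maximal inhibition and Hill coefficient from triplicate means.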

[1] = percentage of maximal inhibition

SMILES | Emax [1] | IC50 (HEK293 cells) | Human P2X4 HEK Cells (FLIPR Assay) avg Efficacy [%] (HEK293 cells, percentage of maximal inhibition)
NS(=O)(=O)c1cc(NC(=O)Cc2ccccc2C(F)(F)F)ccc1-c1ccc(Cl)nc1 [Example 463, N-[4-(6-Chloropyridin-3-yl)-3-sulfamoylphenyl]-2-[2-(trifluoromethyl)phenyl]acetamide] | 99% | 0.018 µM | –
NS(=O)(=O)c1cc(NC(=O)Cc2ccccc2Cl)ccc1-c1cnn(C2CCNCC2)c1 [Example 269, 2-(2-Chlorophenyl)-N-{4-[1-(piperidin-4-yl)-1H-pyrazol-4-yl]-3-sulfamoylphenyl}-acetamide] | 81% | 1.04 µM | –
NS(=O)(=O)c1cc(NC(=O)Cc2ccccc2F)ccc1-c1cnn(C2CCNCC2)c1 [Example 270, 2-(2-Fluorophenyl)-N-{4-[1-(piperidin-4-yl)-1H-pyrazol-4-yl]-3-sulfamoylphenyl}acetamide] | 51% | > 25 µM | –
NS(=O)(=O)c1cc(NC(=O)Cc2c(Cl)cccc2Cl)ccc1-n1cc(Cl)cn1 [Example 80, N-[4-(4-Chloro-1H-pyrazol-1-yl)-3-sulfamoylphenyl]-2-(2,6-dichlorophenyl)acetamide] | 96% | 0.079 µM | –
Cc1ccc(CC(=O)Nc2ccc(-c3nnc(C)o3)c(S(N)(=O)=O)c2)cc1 [Example 526, N-[4-(5-Methyl-1,3,4-oxadiazol-2-yl)-3-sulfamoylphenyl]-2-(4-methylphenyl)acetamide] | 51% | 0.331 µM | –
NS(=O)(=O)c1cc(NC(=O)Cc2ccccc2Cl)ccc1-n1cc(NC(=O)C(F)F)cn1 [Example 506, N-[1-(4-{[(2-Chlorophenyl)acetyl]amino}-2-sulfamoylphenyl)-1H-pyrazol-4-yl]-2,2-difluoroacetamide] | 91% | 0.391 µM | –
NS(=O)(=O)c1cc(NC(=O)Cc2ccccc2F)cnc1-n1cc(C(F)(F)F)cn1 [Example 381, 2-(2-Fluorophenyl)-N-{5-sulfamoyl-6-[4-(trifluoromethyl)-1H-pyrazol-1-yl]pyridin-3-yl}acetamide] | 77% | – | –
Cc1nnc(-c2ccc(NC(=O)Cc3ccccc3F)cc2S(N)(=O)=O)o1 [Example 525, 2-(2-Fluorophenyl)-N-[4-(5-methyl-1,3,4-oxadiazol-2-yl)-3-sulfamoylphenyl]acetamide] | 72% | 5.17 µM | –
Cc1coc(-c2ccc(NC(=O)Cc3ccccc3Cl)cc2S(N)(=O)=O)n1 [Example 432, 2-(2-Chlorophenyl)-N-[4-(4-methyl-1,3-oxazol-2-yl)-3-sulfamoylphenyl]acetamide] | 92% | 0.597 µM | –
COc1ccc(CC(=O)Nc2ccc(-n3ncc(C(F)(F)F)n3)c(S(N)(=O)=O)c2)cc1 [Example 406, 2-(4-Methoxyphenyl)-N-{3-sulfamoyl-4-[4-(trifluoromethyl)-2H-1,2,3-triazol-2-yl]phenyl}acetamide] | 64% | 6.84 µM | –
NS(=O)(=O)c1cc(NC(=O)Cc2ccccc2Cl)ccc1-n1cnc(C(F)(F)F)n1 [Example 7, 2-(2-Chlorophenyl)-N-{3-sulfamoyl-4-[3-(trifluoromethyl)-1H-1,2,4-triazol-1-yl]-phenyl}acetamide] | 73% | 3.08 µM | –
CC(C)n1cc(-c2ccc(NC(=O)Cc3ccccc3F)cc2S(N)(=O)=O)cn1 [Example 343, 2-(2-Fluorophenyl)-N-{4-[1-(propan-2-yl)-1H-pyrazol-4-yl]-3-sulfamoylphenyl}-acetamide] | 101% | 0.042 µM | –
NS(=O)(=O)c1cc(NC(=O)Cc2ccccc2Cl)ccc1-c1cnn(Cc2ccccc2)c1 [Example 293, N-[4-(1-Benzyl-1H-pyrazol-4-yl)-3-sulfamoylphenyl]-2-(2-chlorophenyl)acetamide] | 75% | 0.076 µM | –
N#Cc1cnn(-c2ccc(NC(=O)C(F)(F)c3ccccc3Cl)cc2S(N)(=O)=O)c1 [Example 220, 2-(2-Chlorophenyl)-N-[4-(4-cyano-1H-pyrazol-1-yl)-3-sulfamoylphenyl]-2,2-difluoroacetamide] | 108% | 0.276 µM | –
NS(=O)(=O)c1cc(NC(=O)Cc2ccccc2Cl)ccc1-c1cnn(C2CC2)c1 [Example 349, 2-(2-Chlorophenyl)-N-[4-(1-cyclopropyl-1H-pyrazol-4-yl)-3-sulfamoylphenyl]acetamide] | 99% | – | –
NS(=O)(=O)c1cc(NC(=O)Cc2ccc(F)cc2)ccc1-n1cc(C(F)(F)F)cn1 [Example 119, 2-(4-Fluorophenyl)-N-{3-sulfamoyl-4-[4-(trifluoromethyl)-1H-pyrazol-1-yl]phenyl}-acetamide] | 55% | 0.27 µM | –

SMILES | Emax [1] | IC50 (HEK293 cells) | Human P2X4 HEK Cells (FLIPR Assay) avg Efficacy [%] (HEK293 cells, percentage of maximal inhibition)
NS(=O)(=O)c1cc(NC(=O)Cc2ccccc2Cl)c(C(F)(F)F)cc1-n1cc(C(F)(F)F)cn1 [Example 532, 2-(2-Chlorophenyl)-N-{5-sulfamoyl-2-(trifluoromethyl)-4-[4-(trifluoromethyl)-1H-pyrazol-1-yl]phenyl}acetamide] | 60% | 11.5 µM and 12.9 µM and 17 µM | –
NS(=O)(=O)c1cc(NC(=O)Cc2ccc(C(F)F)cc2)ccc1-n1ncc(C(F)(F)F)n1 [Example 410, 2-[4-(Difluoromethyl)phenyl]-N-{3-sulfamoyl-4-[4-(trifluoromethyl)-2H-1,2,3-triazol-2-yl]phenyl}acetamide] | 69% | 5.45 µM | –
Cc1cn(-c2ccc(NC(=O)Cc3ccccc3Cl)cc2S(N)(=O)=O)nc1C [Example 542, 2-(2-Chlorophenyl)-N-[4-(3,4-dimethyl-1H-pyrazol-1-yl)-3-sulfamoylphenyl]acetamide] | 97% | 0.02 µM | –
CC(C(=O)Nc1cnn(-c2ccc(NC(=O)Cc3ccccc3Cl)cc2S(N)(=O)=O)c1)C(F)(F)F (single isomer, unassigned) [Example 510, N-[1-(4-{[(2-Chlorophenyl)acetyl]amino}-2-sulfamoylphenyl)-1H-pyrazol-4-yl]-3,3,3-trifluoro-2-methylpropanamide] | – | 0.439 µM | 73%
NS(=O)(=O)c1cc(NC(=O)Cc2cc(F)c(F)cc2Cl)ccc1-n1cc(C(F)(F)F)cn1 [Example 130, 2-(2-Chloro-4,5-difluorophenyl)-N-{3-sulfamoyl-4-[4-(trifluoromethyl)-1H-pyrazol-1-yl]phenyl}acetamide] | 71% | 0.284 µM | –
NS(=O)(=O)c1cc(NC(=O)Cc2ccccc2Cl)ccc1-c1cnc(OCC(F)(F)F)nc1 [Example 284, 2-(2-Chlorophenyl)-N-{3-sulfamoyl-4-[2-(2,2,2-trifluoroethoxy)pyrimidin-5-yl]phenyl}-acetamide] | 94% | 0.054 µM | –
NS(=O)(=O)c1cc(NC(=O)Cc2c(F)cc(F)cc2Cl)ccc1-n1cc(C(F)(F)F)cn1 [Example 143, 2-(2-Chloro-4,6-difluorophenyl)-N-{3-sulfamoyl-4-[4-(trifluoromethyl)-1H-pyrazol-1-yl]phenyl}acetamide] | 84% | 0.247 µM | –
NS(=O)(=O)c1cc(NC(=O)Cc2ccccc2Cl)cnc1-n1cc(F)cn1 [Example 385, 2-(2-Chlorophenyl)-N-[6-(4-fluoro-1H-pyrazol-1-yl)-5-sulfamoylpyridin-3-yl]acetamide] | 72% | 0.047 µM | –
NS(=O)(=O)c1cc(NC(=O)Cc2cccnc2Cl)ccc1-n1cc(F)cn1 [Example 158, 2-(2-Chloropyridin-3-yl)-N-[4-(4-fluoro-1H-pyrazol-1-yl)-3-sulfamoylphenyl]acetamide] | 89% | 2.6 µM | –
NS(=O)(=O)c1cc(NC(=O)Cc2ccccc2OC(F)F)ccc1-n1cc(C(F)(F)F)cn1 [Example 125, 2-[2-(Difluoromethoxy)phenyl]-N-{3-sulfamoyl-4-[4-(trifluoromethyl)-1H-pyrazol-1-yl]phenyl}acetamide] | 86% | 0.292 µM | –
CC(C)c1cnn(-c2ccc(NC(=O)Cc3ccccc3Cl)cc2S(N)(=O)=O)c1 [Example 516, 2-(2-Chlorophenyl)-N-[4-(4-isopropyl-1H-pyrazol-1-yl)-3-sulfamoylphenyl]acetamide] | 68% | 0.096 µM | –
Cc1ccc(Cl)c(CC(=O)Nc2ccc(-n3cc(F)cn3)c(S(N)(=O)=O)c2)c1 [Example 165, 2-(2-Chloro-5-methylphenyl)-N-[4-(4-fluoro-1H-pyrazol-1-yl)-3-sulfamoylphenyl]-acetamide] | 93% | 0.042 µM | –
Cc1cccc(CC(=O)Nc2ccc(-n3cc(F)cn3)c(S(N)(=O)=O)c2)c1 [Example 151, N-[4-(4-Fluoro-1H-pyrazol-1-yl)-3-sulfamoylphenyl]-2-(3-methylphenyl)acetamide] | 83% | 0.081 µM | –
NS(=O)(=O)c1cc(NC(=O)Cc2ccccc2C(F)F)ccc1-n1cc(C(F)(F)F)cn1 [Example 21, 2-[2-(Difluoromethyl)phenyl]-N-{3-sulfamoyl-4-[4-(trifluoromethyl)-1H-pyrazol-1-yl]phenyl}acetamide] | 67% | 0.17 µM | –
Cn1cc(-c2ccc(NC(=O)Cc3ccccc3Cl)cc2S(N)(=O)=O)c(C(F)(F)F)n1 [Example 355, 2-(2-Chlorophenyl)-N-{4-[1-methyl-3-(trifluoromethyl)-1H-pyrazol-4-yl]-3-sulfamoylphenyl}acetamide] | 76% | 0.062 µM | –
